Results on 17 compounds are retold here after patent US20060154970A1, “Alanines compounds, method of preparing them and their use” (priority 2003, published 2006).

One data set concerns 3T3-L1 preadipocytes. Put plainly: Insulin-sensitizing activity in 3T3-L1 preadipocyte model, triglyceride accumulation in cells as indication of differentiation. The data set is classed as cell-based. As to conditions: for The Percentage of Triglyceride Increased in 3T3-L1 Cells / activation at 0.01 µM / activation at 0.1 µM / activation at 1 µM: average data in 3 pores (Rosiglitazone: n = 22, mean ± SE); for insulin-sensitizing activity (in words): summary of table 2; for activation at 0.01 µM / activation at 0.1 µM / activation at 1 µM: Mus musculus, 3T3-L1, read-out: The Percentage of Triglyceride Increased in 3T3-L1 Cells. As to the method: Insulin-sensitizing agents can promote the differentiation of preadipocytes toward adipocytes, thus insulin-sensitizing agents could be identified according to the differentiation of pre-adipocytes. Following the methods reported in the literature [Kletzin B F. Mol. Pharm. 1991, 41, 393], the insulin-sensitizing activities of the compounds of formula (I) of the present invention were evaluated in 3T3-L1 pradipocyte model with triglyceride accumulation in cells as the indication of differentiation.
The 3T3-L1 preadipocytes were incubated in DMEM (Dulbecco's Modified Eagle's Medium) containing 10% NBS (newborn calf serum) and subcultured every 3 days. The calls were transferred to 24-pore plates, and after the pores were filled completely the cells were treated with IBMX (isobutylmethylxanthine) (0.5 mmol/L), DEX (dexamethasone) (1 μmol/L) and insulin (1.0 μmol/L) for 48 h. Different amounts of test compounds were incubated with the cells until the end of the experiment. Cells were collected and the contents of triglyceride and protein therein were determined by colorimetry. Enhancements of triglyceride in cells after drug-administrating were calculated.
The positive control group was rosiglitazone, and the solvent control group was a culturing medium containing 0.1% of DMSO. The enhancement of triglyceride in cells was determined in three different concentrations (0.01, 0.1, 1 μmol/L) of the tested compounds.

As to `Cc1oc(-c2ccccc2)nc1CCOc1ccc(C[C@H](NC(=O)[C@H]2CC[C@H](C(C)C)CC2)C(=O)O)cc1` (relative stereo) [Compound 1, (2S)-2-[N-(trans-4-isopropylcyclohexylcarbonyl)amino]-3-[4-[2-(5-methyl-2-phenyl-4-oxazole)ethoxy]phenyl]propionic acid], the “The Percentage of Triglyceride Increased in 3T3-L1 Cells” value in the data set on 3T3-L1 preadipocytes (concentration 0.01 μmol/L) worked out at 1.56%; in the data set with 3T3-L1 preadipocytes (concentration 0.1 μmol/L) it was 21.18%; in the data set with 3T3-L1 preadipocytes (concentration 1 μmol/L) it was 47.09%. The “insulin-sensitizing activity (in words)” value with 3T3-L1 preadipocytes is recorded as “stronger insulin-sensitizing activity”.

The melting point is the temperature, or range, at which the solid turns liquid. On to `Cc1oc(-c2ccccc2)nc1CCOc1ccc(C[C@@H](NC(=O)[C@H]2CC[C@H](C(C)C)CC2)C(=O)O)cc1` [Compound 2, (2R)-2-[N-(trans-4-isopropylcyclohexylcarbonyl)amino]-3-[4-[2-(5-methyl-2-phenyl-4-oxazolyl)ethoxy]phenyl]propionic acid], for which the melting point is 151 to 153 °C (dec.). Moreover, the activation at 0.01 µM in the data set with 3T3-L1 preadipocytes (concentration 0.01 μmol/L) came out at 10.7%. Moreover, in the data set with 3T3-L1 preadipocytes (concentration 0.1 μmol/L), the activation at 0.1 µM worked out at 16.5%. In addition, in the data set with 3T3-L1 preadipocytes (concentration 1 μmol/L), the activation at 1 µM was determined as 30.7%. Besides, the “insulin-sensitizing activity (in words)” value in the data set with 3T3-L1 preadipocytes is on record as “stronger insulin-sensitizing activity”.

As for `CC(C)[C@H]1CC[C@H](C(=O)N[C@@H](Cc2ccc(OCCN(C)c3nc4ccccc4o3)cc2)C(=O)O)CC1` [Compound 3, (2S)-2-[N-(trans-4-isopropylcyclohexylcarbonyl)amino]-3-[4-[2-[N-methyl-N-(2-benzoxazolyl)amino]ethoxy]phenyl]propionic acid], the melting point is 179 to 180 °C (dec.). The activation at 0.01 µM in the data set with 3T3-L1 preadipocytes (concentration 0.01 μmol/L) was -0.37%. Also, the activation at 0.1 µM with 3T3-L1 preadipocytes (concentration 0.1 μmol/L) was found to be 6.7%. For the same compound, the activation at 1 µM with 3T3-L1 preadipocytes (concentration 1 μmol/L) is 20%.

For `CC(C)[C@H]1CC[C@H](C(=O)N[C@H](Cc2ccc(OCCN(C)c3nc4ccccc4o3)cc2)C(=O)O)CC1` [Compound 4, (2R)-2-[N-(trans-4-isopropylcyclohexylcarbonyl)amino]-3-[4-[2-[N-methyl-N-(2-benzoxazolyl)amino]ethoxy]phenyl]propionic acid], the melting point lay in the range of 179 to 180 °C. Moreover, the activation at 0.01 µM with 3T3-L1 preadipocytes (concentration 0.01 μmol/L) is -4.77%. Moreover, the activation at 0.1 µM in the data set on 3T3-L1 preadipocytes (concentration 0.1 μmol/L) amounted to 5.05%. The activation at 1 µM with 3T3-L1 preadipocytes (concentration 1 μmol/L) amounted to 11%.

Regarding `CC(C)[C@H]1CC[C@H](C(=O)N[C@@H](Cc2ccc(OCCn3ccc4ccccc43)cc2)C(=O)O)CC1` [Compound 5, (2S)-2-[N-(trans-4-isopropylcyclohexylcarbonyl)amino]-3-[4-[2-(1-indolyl)ethoxy]phenyl]propionic acid], in the data set with 3T3-L1 preadipocytes (concentration 0.01 μmol/L), the activation at 0.01 µM is -1.54%. In addition, the activation at 0.1 µM in the data set on 3T3-L1 preadipocytes (concentration 0.1 μmol/L) was -4.64%. For the same compound, the activation at 1 µM in the data set with 3T3-L1 preadipocytes (concentration 1 μmol/L) is -6.92%.

On to `CC(C)[C@H]1CC[C@H](C(=O)N[C@@H](Cc2ccc(OCc3ccc(C(F)(F)F)cc3)cc2)C(=O)O)CC1` [Compound 7, (2S)-2-[N-(trans-4-isopropylcyclohexylcarbonyl)amino]-3-[4-(4-trifluoromethylbenzyloxy)phenyl]propionic acid], for which the melting point lay within 171 to 172 °C. The activation at 0.01 µM with 3T3-L1 preadipocytes (concentration 0.01 μmol/L) was 11.8%. Besides, the activation at 0.1 µM in the data set on 3T3-L1 preadipocytes (concentration 0.1 μmol/L) is 5.8%. For the same compound, the activation at 1 µM in the data set with 3T3-L1 preadipocytes (concentration 1 μmol/L) turned out to be 4.68%.

`CC(C)[C@H]1CC[C@H](C(=O)N[C@H](Cc2ccc(OCc3ccc(C(F)(F)F)cc3)cc2)C(=O)O)CC1` [Compound 8, (2R)-2-[N-(trans-4-isopropylcyclohexylcarbonyl)amino]-3-[4-(4-trifluoromethylbenzyloxy)phenyl]propionic acid]: the melting point is 171 to 172 °C.

For `CC(C)[C@H]1CC[C@H](C(=O)N[C@@H](Cc2ccc(OCc3ccccc3)cc2)C(=O)O)CC1` [Compound 9, (2S)-2-[N-(trans-4-isopropylcyclohexylcarbonyl)amino]-3-(4-benzyloxyphenyl)propionic acid], the melting point was 140 to 142 °C (dec.). In addition, the activation at 0.01 µM in the data set on 3T3-L1 preadipocytes (concentration 0.01 μmol/L) was found to be 6%. The activation at 0.1 µM in the data set on 3T3-L1 preadipocytes (concentration 0.1 μmol/L) was 3.35%. Moreover, the activation at 1 µM in the data set with 3T3-L1 preadipocytes (concentration 1 μmol/L) is -0.69%.

As for `CC(C)[C@H]1CC[C@H](C(=O)N[C@H](Cc2ccc(OCc3ccccc3)cc2)C(=O)O)CC1` [Compound 10, (2R)-2-[N-(trans-4-isopropylcyclohexylcarbonyl)amino]-3-(4-benzyloxyphenyl)propionic acid], the melting point was 140 to 142 °C (dec.).

On to `CCCCOc1ccc(C[C@H](NC(=O)[C@H]2CC[C@H](C(C)C)CC2)C(=O)O)cc1` [Compound 11, (2S)-2-[N-(trans-4-isopropylcyclohexylcarbonyl)amino]-3-(4-butoxyphenyl)propionic acid], for which the activation at 0.01 µM in the data set on 3T3-L1 preadipocytes (concentration 0.01 μmol/L) was 0%. For the same compound, the activation at 0.1 µM with 3T3-L1 preadipocytes (concentration 0.1 μmol/L) came to 0.36%. For the same compound, the activation at 1 µM with 3T3-L1 preadipocytes (concentration 1 μmol/L) turned out to be 2.23%.

In the case of `CCCCOc1ccc(C[C@@H](NC(=O)[C@H]2CC[C@H](C(C)C)CC2)C(=O)O)cc1` [Compound 12, (2R)-2-[N-(trans-4-isopropylcyclohexylcarbonyl)amino]-3-(4-butoxyphenyl)propionic acid], the melting point fell in the range of 120 to 121 °C.

As for `CCOc1ccc(C[C@H](NC(=O)[C@H]2CC[C@H](C(C)C)CC2)C(=O)O)cc1` [Compound 13, (2S)-2-[N-(trans-4-isopropylcyclohexylcarbonyl)amino]-3-(4-ethoxyphenyl)propionic acid], the melting point was in the range of 168 to 170 °C. Further, the activation at 0.01 µM in the data set on 3T3-L1 preadipocytes (concentration 0.01 μmol/L) is 1.89%. Besides, the activation at 0.1 µM in the data set on 3T3-L1 preadipocytes (concentration 0.1 μmol/L) turned out to be 1.83%. Moreover, the activation at 1 µM in the data set with 3T3-L1 preadipocytes (concentration 1 μmol/L) is -4.74%.

`CCOc1ccc(C[C@@H](NC(=O)[C@H]2CC[C@H](C(C)C)CC2)C(=O)O)cc1` [Compound 14, (2R)-2-[N-(trans-4-isopropylcyclohexylcarbonyl)amino]-3-(4-ethoxyphenyl)propionic acid] gave a melting point of 168 to 170 °C.

On to `COc1ccc(C[C@H](NC(=O)[C@H]2CC[C@H](C(C)C)CC2)C(=O)O)cc1` [Compound 15, (2S)-2-[N-(trans-4-isopropylcyclohexylcarbonyl)amino]-3-(4-methoxyphenyl)propionic acid], for which the melting point lay within 149 to 151 °C. Also, in the data set on 3T3-L1 preadipocytes (concentration 0.01 μmol/L), the activation at 0.01 µM is -0.21%. For the same compound, the activation at 0.1 µM in the data set on 3T3-L1 preadipocytes (concentration 0.1 μmol/L) was determined as 5.99%. Also, the activation at 1 µM with 3T3-L1 preadipocytes (concentration 1 μmol/L) was found to be 5.04%.

`CC(C)[C@H]1CC[C@H](C(=O)N[C@@H](Cc2ccc(O)cc2)C(=O)O)CC1` [Compound 17, (2S)-2-[N-(trans-4-isopropylcyclohexylcarbonyl)amino]-3-(4-hydroxyphenyl)propionic acid] came in with a melting point of 156 to 157 °C. For the same compound, in the data set on 3T3-L1 preadipocytes (concentration 0.01 μmol/L), the activation at 0.01 µM came out at 0.22%. In the data set on 3T3-L1 preadipocytes (concentration 0.1 μmol/L), the activation at 0.1 µM was 10.8%. The activation at 1 µM in the data set with 3T3-L1 preadipocytes (concentration 1 μmol/L) amounted to 0.85%.

In the case of `CC(C)[C@H]1CC[C@H](C(=O)N[C@H](Cc2ccc(O)cc2)C(=O)O)CC1` [Compound 18, (2R)-2-[N-(trans-4-isopropylcyclohexylcarbonyl)amino]-3-(4-hydroxyphenyl)propionic acid], the melting point fell in the range of 156 to 157 °C.

Consider `CC(C)[C@H]1CC[C@H](C(=O)N[C@@H](Cc2ccc(OCCN(C)c3ccccn3)cc2)C(=O)O)CC1` [Compound 19, (2S)-2-[N-(trans-4-isopropylcyclohexylcarbonyl)amino]-3-[4-[2-[N-methyl-N-(2-pyridyl)amino]ethoxyl]phenyl]propionic acid], for which the melting point was 158 to 160 °C. Besides, in the data set with 3T3-L1 preadipocytes (concentration 0.01 μmol/L), the activation at 0.01 µM is -1.46%. Also, the activation at 0.1 µM with 3T3-L1 preadipocytes (concentration 0.1 μmol/L) was -2.24%. The activation at 1 µM in the data set with 3T3-L1 preadipocytes (concentration 1 μmol/L) is -1.62%.
